Results from ChEMBL document CHEMBL5360623, “Principles and Applications of CF2X Moieties as Unconventional Halogen Bond Donors in Medicinal Chemistry, Chemical Biology, and Drug Discovery” (J Med Chem, 2023).

Columns and labels:
[1] = Stability of the compound in PBS buffer assessed as half life at 250 uM at pH 7.4 in presence of GSH by HPLC analysis; format: physicochemical; conditions: pH 7.4, 250 µM
[2] = molecular target: Mitogen-activated protein kinase 10 (Homo sapiens, UniProt P53779); test: Binding affinity to JNK3 (39 to 402 residues) (unknown origin) expressed in Escherichia coli BL21(DE3) assessed as dissociation constant by isothermal titration calorimetry assay
Chain of Mitogen-activated protein kinase 10 (P53779 whole entry, the tested form may be a part): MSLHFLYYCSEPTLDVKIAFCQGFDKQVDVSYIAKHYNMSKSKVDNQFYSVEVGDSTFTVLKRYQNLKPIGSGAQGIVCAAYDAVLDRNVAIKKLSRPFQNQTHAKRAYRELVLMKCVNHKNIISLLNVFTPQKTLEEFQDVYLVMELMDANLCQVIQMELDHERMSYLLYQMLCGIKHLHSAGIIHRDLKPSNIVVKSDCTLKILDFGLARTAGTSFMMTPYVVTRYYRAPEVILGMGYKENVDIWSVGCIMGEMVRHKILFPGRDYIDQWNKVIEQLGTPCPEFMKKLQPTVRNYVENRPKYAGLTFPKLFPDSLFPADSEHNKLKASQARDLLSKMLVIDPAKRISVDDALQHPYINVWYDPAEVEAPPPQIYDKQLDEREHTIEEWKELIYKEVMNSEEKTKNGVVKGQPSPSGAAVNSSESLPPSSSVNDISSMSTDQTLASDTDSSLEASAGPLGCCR

[3] = molecular target: Mitogen-activated protein kinase 8 (Homo sapiens, UniProt P45983); test: Binding affinity to JNK1 (2 to 364 residues) (unknown origin) expressed in Escherichia coli BL21(DE3) assessed as dissociation constant by isothermal titration calorimetry assay
Chain of Mitogen-activated protein kinase 8 (P45983 whole entry, the tested form may be a part): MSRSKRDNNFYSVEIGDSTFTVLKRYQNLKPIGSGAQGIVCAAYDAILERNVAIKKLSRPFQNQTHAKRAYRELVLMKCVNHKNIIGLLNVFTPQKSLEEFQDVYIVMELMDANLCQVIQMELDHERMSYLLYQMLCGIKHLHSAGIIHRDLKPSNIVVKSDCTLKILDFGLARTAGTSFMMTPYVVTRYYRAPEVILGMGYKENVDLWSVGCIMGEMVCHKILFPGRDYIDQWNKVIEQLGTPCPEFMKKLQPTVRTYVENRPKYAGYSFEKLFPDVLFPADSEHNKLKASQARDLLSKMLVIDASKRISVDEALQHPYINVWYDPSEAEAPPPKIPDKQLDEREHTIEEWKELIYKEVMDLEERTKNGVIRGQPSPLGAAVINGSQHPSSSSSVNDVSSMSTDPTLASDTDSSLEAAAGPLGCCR

SMILES	t1/2 [1] [days]	Kd ([2]; read-out: Kd) [µM]	Kd [3]	Kd [2]	Kd ([3]; read-out: Kd) [µM]
O=C(Nc1ccc2c(c1)OCO2)C(F)(F)Cl	10.8	> 1000	Not Active		
NC(=O)Nc1ccc(OC(F)(F)F)cc1	> 50				
NC(=O)Nc1ccc(NC(=O)C(F)(F)Br)cc1			Not Active	Not Active	
O=C(Nc1ccc2c(c1)OCO2)C(F)F	> 50				
O=C(Nc1ccc2c(c1)OCO2)C(F)(F)F	5.42				
O=C(Nc1nncs1)C(F)(F)Cl		243			186
O=C(c1cnc2ccccn12)C(F)(F)Cl		> 1000			> 1000
O=C(Nc1ccc2c(c1)OCO2)C(F)(F)I	12.1		Not Active	Not Active	
NC(=O)Nc1ccc(OC(F)(F)Cl)cc1	> 50				
NC(=O)Nc1ccc(OC(F)(F)I)cc1	0.3				
O=C(NCCc1c[nH]c2ccccc12)C(F)(F)Cl			Not Active	Not Active	
O=C(Nc1nnc(-c2ccncc2)s1)C(F)(F)Cl		23			20
O=C(Nc1ccc(Cn2cncn2)cc1)C(F)(F)Br			Not Active	Not Active	
O=C(Nc1ccc2c(c1)OCO2)C(F)(F)Br	11.7	> 1000			> 1000
O=C(Nc1cccc2nsnc12)C(F)(F)Br			Not Active	Not Active	
O=C(Nc1nncs1)C(F)(F)I		186			104
O=C(Nc1nnc(-c2ccncc2)s1)C(F)(F)Br		17			15
O=C(Nc1ccc(O)c(O)c1)C(F)(F)Cl			Not Active	Not Active	
O=C(c1ccco1)N1CCN(C(=O)C(F)(F)Br)CC1			Not Active	Not Active	
O=C(Nc1nnc(-c2ccc([N+](=O)[O-])cc2)o1)C(F)(F)Br			Not Active	Not Active	
O=C(Nc1nnc(-c2ccncc2)s1)C(F)(F)I		13			10
NC(=O)Nc1ccc(OC(F)(F)Br)cc1	0.221				
NC(=O)Nc1ccc(OC(F)F)cc1	> 50				
CCOC(=O)c1cnn(C)c1NC(=O)C(F)(F)Cl			Not Active	Not Active	
Nc1nnc(-c2ccncc2)s1				Not Active	162
O=C(Nc1ccc(F)cc1)C(F)(F)Br			Not Active	Not Active	
CCOC(=O)c1c(NC(=O)C(F)(F)Br)sc2c1CCCC2			Not Active	Not Active	
COC(=O)c1scc(C)c1NC(=O)C(F)(F)Cl			Not Active	Not Active	
O=C(Nc1nncs1)C(F)(F)Br		248			193
O=C(Nc1nccs1)C(F)(F)Br		> 1000			> 1000
